Paper PMC12631937, “Autologous Organoid‐T Cell Co‐Culture Platform for Modeling of Immune‐Mediated Drug‐Induced Liver Injury” (Advanced Science, 2025)

Columns and labels:
[1] = system: HLO microarrays (iPSC-derived human liver organoids); assay: cells
Experimental: HLO microarrays were exposed to seven‐day repeated‐dose treatment of Chlorpromazine and Flucloxacillin across five half‐log‐spaced concentrations, with vehicle‐treated wells serving as controls. Following treatment, cell viability was assessed by quantifying total cellular ATP content using the CellTiter‐Glo assay, while cytotoxicity was determined by counting DRAQ7‐positive nuclei (dead cells) in organoids. Hepatic functionality was further evaluated by measuring albumin secretion in the culture supernatant via ELISA (Figure 2A).
Chlorpromazine (Sigma) and Streptomycin (MCE) were dissolved in DMSO, and 5–7 serial dilutions of 200 × stock solutions were prepared alongside corresponding vehicle controls (0.5% DMSO). Aliquots were frozen to ensure consistency across experiments. On the day of treatment, aliquots were thawed and diluted in liver maturation medium to achieve final working concentrations. Flucloxacillin (Sigma) was freshly prepared in liver maturation medium immediately prior to each dosing. HLO microarrays were treated over a 7‐day period, with a single re‐dosing and media refreshment on day 3. The highest concentrations tested for all compounds were 1000 µM.
Cell viability was assessed on day 7 using the CellTiter‐Glo 3D Cell Viability Assay (Promega, Cat. G9682). Luminescence was recorded using a Spectra Max iD3 microplate reader (Molecular Devices) following the manufacturer's recommended settings. Viability data from compound‐treated HLOs were normalized to the corresponding vehicle controls on the same plate.
Dose‐response curves and IC50 values were determined by nonlinear regression of log‐transformed compound concentrations (6‐8 point serial dilutions including vehicle) against normalized viability data. Curve fitting was performed using a variable Hill slope and constraining the top and bottom of the curve to 100 and 0, respectively (GraphPad Prism, GraphPad Software, La Jolla, CA, USA). To contextualize in vitro toxicity data with human exposure levels, Margin of Safety (MOS) values were calculated as the ratio of the in vitro IC50 to the compound's reported clinical maximum plasma concentration (MOS = IC50 / Cmax).

CD8+ T cells = assay: Monocyte-derived dendritic cell (mDC) priming assay of naïve CD8+ T cells, flow cytometry; assay type: cell-based, human
Text: Peripheral blood samples were collected from four HLA‐B*57:01 carriers and four HLA‐B*57:01 non‐carrier donors (Figure 4B). To generate antigen‐specific CD8⁺ T cells, we employed a monocyte‐derived dendritic cell (mDC) priming assay (Figure 4A). Naïve CD8⁺ T cells and monocytes were isolated from peripheral blood mononuclear cells (PBMCs) of each donor. mDCs were differentiated using IL‐4 and GM‐CSF, followed by maturation and activation with LPS and IFN‐γ. Mature mDCs were then loaded with Flucloxacillin or media alone and used to prime naïve CD8⁺ T cells. After priming, CD8⁺ T cells (i.e., Flucloxacillin‐primed CD8^+ T cells) were expanded in the presence of a low dose of IL‐15 for 10 days, followed by CFSE labeling and re‐stimulation with freshly loaded mDCs under the same conditions. Flow cytometry was used to assess CD8⁺ T cell maturation, proliferation, and post‐priming activation. […] T cell antigen‐specific activation efficacy was evaluated using multi‐color flow cytometry with Diva and FlowJo (BD software). T cell proliferation and activation were assessed using CFSE (1 µM, ThermoFisher) for proliferation, Human TruStain FcX for Fc receptor blocking, and a panel of antibodies including CD3 (clone UCHT1), CD8 (clone 3B5), CD4 (clone RPA‐T4), CD45RO (clone UCHL1), CD107a (clone H4A3), HLA‐DR (clone TU36), CD137 (clone 4B4), and CD69 (clone FN50). […]

[2] = system: HLO microarrays (iPSC-derived human liver organoids); assay: HLO microarray cytotoxicity, DRAQ7-positive nuclei (dead cells); assay type: cell-based; conditions: 168 h, seven-day repeated-dose treatment, Figure 2C, read-out: Cell death (% Draq7+ cells) IC50
Experimental: HLO microarrays were exposed to seven‐day repeated‐dose treatment of Chlorpromazine and Flucloxacillin across five half‐log‐spaced concentrations, with vehicle‐treated wells serving as controls. Following treatment, cell viability was assessed by quantifying total cellular ATP content using the CellTiter‐Glo assay, while cytotoxicity was determined by counting DRAQ7‐positive nuclei (dead cells) in organoids. Hepatic functionality was further evaluated by measuring albumin secretion in the culture supernatant via ELISA (Figure 2A). Chlorpromazine (Sigma) and Streptomycin (MCE) were dissolved in DMSO, and 5–7 serial dilutions of 200 × stock solutions were prepared alongside corresponding vehicle controls (0.5% DMSO). Aliquots were frozen to ensure consistency across experiments. On the day of treatment, aliquots were thawed and diluted in liver maturation medium to achieve final working concentrations. […] Dose‐response curves and IC50 values were determined by nonlinear regression of log‐transformed compound concentrations (6‐8 point serial dilutions including vehicle) against normalized viability data. […] To contextualize in vitro toxicity data with human exposure levels, Margin of Safety (MOS) values were calculated as the ratio of the in vitro IC50 to the compound's reported clinical maximum plasma concentration (MOS = IC50 / Cmax).

[3] = system: HLOs co-cultured with autologous Flucloxacillin-primed CD8+ T cells; assay: Autologous HLO - CD8+ T cell co-culture, immune-mediated hepatocyte injury; assay type: cell-based, human
Experimental: To model immune‐mediated liver injury, Flucloxacillin‐primed CD8⁺ T cells from three HLA‐B*57:01 carrier and three HLA‐B*57:01 non‐carrier donors were co‐cultured with autologous HLOs pre‐treated with Flucloxacillin (Figure 5A). Co‐cultures with unprimed CD8⁺ T cells served as controls to exclude non‐specific T cell reactivity. HLOs were generated from iPSC lines derived from donor PBMCs and exposed to 100 µM Flucloxacillin for 72 h before initiating co‐culture. On day 23 of maturation, HLOs were co‐cultured with unprimed or Flux‐primed CD8⁺ T cells to assess immune‐mediated hepatocyte injury. Liver damage was quantified using immunofluorescence‐based detection of DRAQ7⁺ dead cells and measurement of cytokeratin‐18 (CK‐18) release, a highly specific biomarker of early‐stage DILI. CK‐18, an intermediate filament protein expressed in hepatocytes and cholangiocytes but absent in immune cells, provided greater specificity for hepatocyte death than traditional markers such as LDH or ATP.
Culture supernatants were analyzed to quantify albumin and CK18 levels using sandwich ELISA kits (Albumin, Abcam, and M65 EpiDeath CK18Diapharma) according to manufacturer's protocols. TNFα and Granzyme B secretion were measured using the Luminex Discovery Assay kit (R&D Systems/Biotechne) according to the manufacturer's protocol.
Following initial 12 day priming as described above, CD8^+ T cells were stained with CFSE (5 µM, Fisher Scientific, Catalog No. 11‐0699‐42) and resuspended in an optimized co‐culture media. This media consisted of a 1:1 mixture of complete RPMI (RPMI + 1% penicillin/streptomycin and 150 IU mL^−1 IL‐2) and modified liver maturation media (excluding HGF, dexamethasone and hydrocortisone) supplemented with 10 IU mL^−1 IL‐7 and 10 IU/ml IL‐15. Labeled CD8⁺ T cells were added to mature (day 23) HLO microarray cultures at effector‐to‐target (E:T) ratios of 1:1 and 1:5. These ratios were chosen to reflect the localized enrichment of cytotoxic lymphocytes observed during immune‐mediated liver injury, including periportal CD8⁺ T cell infiltration in flucloxacillin‐induced DILI (PMID: 24 731 753).^[ [14] ^] Prior to co‐culture, HLO were pretreated with 100 µM Flucloxacillin for 72 h. The co‐culture was maintained for 72 h with media exchanges performed every 24 h. When indicated, T cell activation was induced using anti‐CD3 (1 µg ml^−1, BioLegend) and anti‐CD28 (1 µg ml^−1, BioLegend) antibodies.

[4] = system: HLO microarrays (iPSC-derived human liver organoids); assay: Albumin secretion of HLO microarrays in culture supernatant (ELISA); assay type: cell-based; conditions: 168 h, seven-day repeated-dose treatment, Figure 2E, read-out: Albumin release (% of control) IC50
Text: Hepatic functionality was further evaluated by measuring albumin secretion in the culture supernatant via ELISA (Figure 2A). […] Aliquots were frozen to ensure consistency across experiments. On the day of treatment, aliquots were thawed and diluted in liver maturation medium to achieve final working concentrations. Flucloxacillin (Sigma) was freshly prepared in liver maturation medium immediately prior to each dosing.

[5] = reported clinical Cmax; cited from earlier work
[6] = Homo sapiens, 168 h, read-out: Cell Viability (% of control) IC50, ATP-based, seven-day repeated-dose treatment, Figure 2D
[7] = Homo sapiens, read-out: average IC50, average across three independent iPSC-derived HLO lines (donors), Figure S2

Row | Structure (SMILES) | cytotoxicity at clinically relevant exposures [1] | IC50 [1, 6] [µM] | CD8+ T cell response to priming (CD8+ T cells; HLA-B*57:01 non-carrier donors) | increase in T cell proliferation (CFSElow cells) and activation marker expression relative to media-alone priming (CD8+ T cells; two of four HLA-B*57:01-positive donors (robust responders), DCs pulsed with 1000 µM) | IC50 [2] [µM] | secretion of TNF-α and Granzyme B ([3]; primed CD8+ T cells from HLA-B*57:01 carrier donors 534 and 622) | CK-18 release ([3]; primed CD8+ T cells from HLA-B*57:01 carrier donors 534 and 622, HLOs pre-treated with 100 µM for 72 h) | increase in DRAQ7+ cell death compared to T cell-free controls ([3]; primed CD8+ T cells from HLA-B*57:01 carrier donors 534 and 622, HLOs pre-treated with 100 µM for 72 h, 72 h co-culture) [fold] | hepatocyte death or CK-18 release ([3]; primed T cells from weak-responder HLA-B*57:01 carriers and all non-carrier donors) | IC50 [4] [µM] | Cmax [5] [µM] | IC50 [1, 7] [µM] | margin of safety (MOS = IC50 / Cmax) ([1]; human, 7 days) | IC50 ([1]; read-out: Cell Viability (% of control) IC50, ATP-based, seven-day repeated-dose treatment, Figure 2D) [µM]
1 | Cc1onc(-c2c(F)cccc2Cl)c1C(=O)N[C@@H]1C(=O)N2[C@@H]1SC(C)(C)[C@@H]2C(=O)O [Flucloxacillin] | no cytotoxicity | > 1000 | did not exhibit a comparable response | over 2 fold | > 1000 | increased secretion | significantly elevated | 4 | failed to induce hepatocyte death | > 1000 | ~31 |  |  | 
2 | [H]/N=C(/N)N[C@H]1[C@H](O)[C@@H](O)[C@H](O[C@@H]2O[C@@H](C)[C@](O)(C=O)[C@H]2O[C@@H]2O[C@@H](CO)[C@H](O)[C@@H](O)[C@@H]2NC)[C@@H](N/C(N)=N\[H])[C@@H]1O [Streptomycin] | no cytotoxicity |  |  |  |  |  |  |  |  |  | ~72.2 | 341 |  | 
3 | CN(C)CCCN1c2ccccc2Sc2ccc(Cl)cc21 [Chlorpromazine] |  | 14.5 |  |  | 19.7 |  |  |  |  | 6.36 | ~0.94 | 11.1 | ≈ 15.3 | 14.4
